This note sets out measurements from patent publication US11440906B2, “Biguanide derivatives and their rearrangement products for use in the treatment of cancer” (CENTRE NATIONAL DE LA RECHERCHE SCIENTIFIQUE, priority 2017, dated 2022).

Molecules are shown by their SMILES. Like-named read-outs stand apart in the source and are kept apart here.

The subject of this assay is A375 Sensitive cells. The experiment in a line: Viability test, trypan blue exclusion, A375 Sensitive cells. The assay is classed as cell-based, human. The note with it: Homo sapiens, A-375, viable cells as percentage of DMSO control. An outline of the steps: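 A375 (B-Raf, CDKN2A, PTEN mutant) cells were exposed to compounds at 5.0 or 10 μM for 24 or 48 hr; CRO15 also at 0.5–50 μM for 48 hr or 5 μM for 2–48 hr; DMSO control. Viable cells were counted by trypan blue exclusion, as % of control. Three experiments in triplicate.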

Setting [1] is: 24 h, read-out: Viab A375 5 μM/ 24 h.
The mark [2] stands for this setting: 48 h, read-out: Viab A375 5 μM/ 48 h.
[3] abbreviates: 24 h, read-out: Viab A375 10 μM/ 24 h.
Setting [4] is: 48 h, read-out: Viab A375 10 μM/ 48 h.

In the case of `COc1cccc(C(=N)NC(=N)Nc2nc3ccccc3s2)c1` [MTF 342, N—(N-(benzo[d]thiazol-2-yl)carbamimidoyl)-3-methoxybenzimidamide], the viability at 5 µM is, setting by setting: under setting [1], 48.6%; under setting [2], 8.6%. In addition, the viability at 10 µM under setting [3] came out at 32.2% and the viability at 10 µM under setting [4] is 8.6%.
As to `N=C(NC(=N)c1ccc([N+](=O)[O-])cc1)Nc1nc2ccccc2s1` [MTF 398, N—(N-(benzo[d]thiazol-2-yl)carbamimidoyl)-4-nitrobenzimidamide], the viability at 5 µM worked out at 91.9% under setting [1] and 132% under setting [2]. The viability at 10 µM is 91% under setting [3] and 109% under setting [4].
Consider `N=c1nc(C(Cl)(Cl)Cl)nc(Nc2ccc(Cl)cc2O)[nH]1` [MTF 375], for which the viability at 5 µM came to 47.2% under setting [1] and 29.5% under setting [2]. In addition, the viability at 10 µM under setting [3] worked out at 30.9% and the viability at 10 µM under setting [4] turned out to be 15.5%.
The corresponding values for `N=C(NC(=N)c1ccc(Cl)cc1)Nc1nc2ccccc2s1` [MTF 245, N—(N-(benzo[d]thiazol-2-yl)carbamimidoyl)-4-chlorobenzimidamide] are 95%, 100%, 83% and 79.6%.
Taken in the same sequence, the figures for `N=C(NC(=N)c1ccnc(Cl)c1)Nc1nc2ccccc2s1` [MTF 380, N—(N-(benzo[d]thiazol-2-yl)carbamimidoyl)-2-chloroisonicotinimidamide] were 47.3%, 4.9%, 36.2% and 2.3%.
Regarding `COc1ccc(-c2nc(N)nc(Nc3ccccc3SSc3ccccc3Nc3nc(N)nc(-c4ccc(OC)cc4)n3)n2)cc1` [MTF 324, N2,N2′-(disulfanediylbis(2,1-phenylene))bis(6-(4-methoxyphenyl)-1,3,5-triazine-2,4-diamine)], the viability at 5 µM by setting is: under setting [1], 44.1%; under setting [2], 13.3%. Moreover, the viability at 10 µM worked out at 12.9% under setting [3] and 8.2% under setting [4].
As to `N=C(NC(=N)c1cccnc1)Nc1nc2ccccc2s1` [MTF 252, N—(N-(benzo[d]thiazol-2-yl)carbamimidoyl)nicotinimidamide], the viability at 5 µM runs as follows: under setting [1], 8.6%; under setting [2], 5.2%. Further, the viability at 10 µM under setting [3] was found to be 12.9% and the viability at 10 µM under setting [4] is 2.6%.
Take `Cc1csc(NC(=N)NC(=N)c2cccc(Cl)c2)n1` [MTF 285, 3-chloro-N—(N-(4-methylthiazol-2-yl)carbamimidoyl)benzimidamide]: the viability at 5 µM by setting is: under setting [1], 45%; under setting [2], 100%. Besides, the viability at 10 µM is, setting by setting: under setting [3], 77.8%; under setting [4], 78.7%.
In the case of `Nc1nc(Nc2ccc([N+](=O)[O-])cc2O)nc(C(Cl)(Cl)Cl)n1` [MTF 376, 2-((4-amino-6-(trichloromethyl)-1,3,5-triazin-2-yl)amino)-5-nitrophenol], the viability at 5 µM amounted to 44.7% under setting [1] and 38.9% under setting [2]. For the same compound, the viability at 10 µM turned out to be 24.3% under setting [3] and 20.9% under setting [4].
For the compound `N=C(NC(=N)c1ccc2ccccc2c1)Nc1nc2ccccc2s1` [MTF 384, N—(N-(benzo[d]thiazol-2-yl)carbamimidoyl)-2-naphthimidamide], the viability at 5 µM under setting [1] came to 76.1% and the viability at 5 µM under setting [2] is 119%. The viability at 10 µM came out at 93.3% under setting [3] and 72.2% under setting [4].
Turning to `Cc1csc(NC(=N)NC(=N)c2ccccc2)n1` [MTF 283, N—(N-(4-methylthiazol-2-yl)carbamimidoyl)benzimidamide], the viability at 5 µM is, setting by setting: under setting [1], 100%; under setting [2], 56%. Also, the viability at 10 µM runs as follows: under setting [3], 100%; under setting [4], 150%.
For the compound `Cc1csc(NC(=N)NC(=N)c2ccc(Cl)cc2)n1` [MTF 286, 4-chloro-N—(N-(4-methylthiazol-2-yl)carbamimidoyl)benzimidamide], the viability at 5 µM runs as follows: under setting [1], 48%; under setting [2], 155%. Further, the viability at 10 µM reads like this: under setting [3], 65.3%; under setting [4], 120%.
On to `N=C(NC(=N)c1cccc(Cl)c1)Nc1nc(-c2cccc([N+](=O)[O-])c2)cs1` [MTF 277, 3-chloro-N—(N-(4-(3-nitrophenyl)thiazol-2-yl)carbamimidoyl)benzimidamide], for which the viability at 5 µM under setting [1] came out at 77.6% and the viability at 5 µM under setting [2] stood at 88%. Also, the viability at 10 µM by setting is: under setting [3], 76.4%; under setting [4], 85.8%.
Take `N=C(NC(=N)c1ccc(C(F)(F)F)cc1)Nc1nc2ccccc2s1` [MTF 385, N—(N-(benzo[d]thiazol-2-yl)carbamimidoyl)-4-(trifluoromethyl)benzimidamide]: the viability at 5 µM by setting is: under setting [1], 52.3%; under setting [2], 68.1%. The viability at 10 µM is 86.6% under setting [3] and 81.5% under setting [4].
The corresponding values for `N=C(NC(=N)c1cccc(C(F)(F)F)c1)Nc1nc2ccccc2s1` [MTF 343, N—(N-(benzo[d]thiazol-2-yl)carbamimidoyl)-3-(trifluoromethyl)benzimidamide] are 67.7%, 52.9%, 34.8% and 24.1%.
Taken in the same sequence, the figures for `COc1ccc(Nc2nc(N)nc(C(Cl)(Cl)Cl)n2)c(SSc2cc(OC)ccc2Nc2nc(N)nc(C(Cl)(Cl)Cl)n2)c1` [MTF 232, N2,N2′-(disulfanediylbis(4-methoxy-2,1-phenylene))bis(6-(trichloromethyl)-1,3,5-triazine-2,4-diamine)] were 83.3%, 24.9%, 33.9% and 16.4 ± 4.9%.
The corresponding values for `N=C(NC(=N)c1ncc(Cl)cc1Cl)Nc1nc2ccccc2s1` [MTF 389, N—(N-(benzo[d]thiazol-2-yl)carbamimidoyl)-3,5-dichloropicolinimidamide] are 74.6%, 85.6%, 75.8% and 76.4%.
Consider `N=C(NC(=N)c1cccnc1)Nc1nc(-c2cccc([N+](=O)[O-])c2)cs1` [MTF 260, N—(N-(4-(3-nitrophenyl)thiazol-2-yl)carbamimidoyl)nicotinimidamide], for which the viability at 5 µM was 57% under setting [1] and 32% under setting [2]. Further, the viability at 10 µM reads like this: under setting [3], 76.7%; under setting [4], 78%.
As to `Nc1nc(Nc2ccccc2SSc2ccccc2Nc2nc(N)nc(-c3ccccc3F)n2)nc(-c2ccccc2F)n1` [MTF 452, N2,N2′-(disulfanediylbis(2,1-phenylene))bis(6-(2-fluorophenyl)-1,3,5-triazine-2,4-diamine)], the viability at 5 µM runs as follows: under setting [1], 43.6%; under setting [2], 60.5%. Further, the viability at 10 µM is, setting by setting: under setting [3], 22.3%; under setting [4], 40.3%.
Take `N=C(NC(=N)c1cccs1)Nc1nc2ccccc2s1` [MTF 381, N—(N-(benzo[d]thiazol-2-yl)carbamimidoyl)thiophene-2-carboximidamide]: the viability at 5 µM by setting is: under setting [1], 88.3%; under setting [2], 61.6%. Further, the viability at 10 µM came to 90.6% under setting [3] and 61.4% under setting [4].
On to `Nc1nc(Nc2ccccc2SSc2ccccc2Nc2nc(N)nc(-c3ccccc3[N+](=O)[O-])n2)nc(-c2ccccc2[N+](=O)[O-])n1` [MTF 463, N2,N2′-(disulfanediylbis(2,1-phenylene))bis(6-(2-nitrophenyl)-1,3,5-triazine-2,4-diamine)], for which the viability at 5 µM reads like this: under setting [1], 80%; under setting [2], 74.3%. Moreover, the viability at 10 µM was determined as 56.1% under setting [3] and 43.4% under setting [4].
The corresponding values for `Nc1nc(Nc2ccccc2SSc2ccccc2Nc2nc(N)nc(-c3cscc3Br)n2)nc(-c2cscc2Br)n1` [MTF 397, N2,N2′-(disulfanediylbis(2,1-phenylene))bis(6-(4-bromothiophen-3-yl)-1,3,5-triazine-2,4-diamine)] are 35.4%, 33.7%, 13.4% and 7.3%.
`N=C(NC(=N)c1cccc(Cl)c1)Nc1nc(-c2ccccc2)cs1` [MTF 267, 3-chloro-N—(N-(4-phenylthiazol-2-yl)carbamimidoyl)benzimidamide]: the viability at 5 µM is, setting by setting: under setting [1], 113%; under setting [2], 113%. Moreover, the viability at 10 µM reads like this: under setting [3], 134%; under setting [4], 73.3%.
Regarding `COc1ccc(C(=N)NC(=N)Nc2nc3ccccc3s2)cc1` [MTF 254, N—(N-(benzo[d]thiazol-2-yl)carbamimidoyl)-4-methoxybenzimidamide], the viability at 5 µM under setting [1] stood at 100% and the viability at 5 µM under setting [2] is 100%. Moreover, the viability at 10 µM under setting [3] is 100% and the viability at 10 µM under setting [4] came out at 100%.
Take `Nc1nc(Nc2ccccc2SSc2ccccc2Nc2nc(N)nc(-c3c(Br)cncc3Br)n2)nc(-c2c(Br)cncc2Br)n1` [MTF 456, N2,N2′-(disulfanediylbis(2,1-phenylene))bis(6-(3,5-dibromopyridin-4-yl)-1,3,5-triazine-2,4-diamine)]: the viability at 5 µM reads like this: under setting [1], 66.5%; under setting [2], 87.5%. Besides, the viability at 10 µM under setting [3] amounted to 52.3% and the viability at 10 µM under setting [4] was determined as 76.1%.
For `N=C(NC(=N)c1ccccc1)Nc1nc(-c2ccccc2)cs1` [MTF 272, N—(N-(4-phenylthiazol-2-yl)carbamimidoyl)benzimidamide], the viability at 5 µM by setting is: under setting [1], 100%; under setting [2], 81%. For the same compound, the viability at 10 µM is, setting by setting: under setting [3], 88%; under setting [4], 54.6%.
